Measurements published in ChEMBL document CHEMBL4414672, “Synthesis of certain benzothieno[3,2-d]pyrimidine derivatives as a selective SIRT2 inhibitors” (Eur J Med Chem, 2020).

Legend:
Assay type in all cases: functional
HCC 2998 = test: Growth inhibition of human HCC2998 cells at 10^-5 M incubated for 48 hrs by sulforhodamine B assay; details: HCC 2998, 48 h, read-out: GI
RXF 393 = test: Growth inhibition of human RXF393 cells at 10^-5 M incubated for 48 hrs by sulforhodamine B assay; details: RXF 393, 48 h, read-out: GI
MCF7 = test: Growth inhibition of human MCF7 cells at 10^-5 M incubated for 48 hrs by sulforhodamine B assay; details: MCF7, 48 h, read-out: GI
SW-620 = test: Growth inhibition of human SW620 cells at 10^-5 M incubated for 48 hrs by sulforhodamine B assay; details: SW-620, 48 h, read-out: GI
OVCAR-5 = test: Growth inhibition of human OVCAR5 cells at 10^-5 M incubated for 48 hrs by sulforhodamine B assay; details: OVCAR-5, 48 h, read-out: GI
M14 = test: Growth inhibition of human M14 cells at 10^-5 M incubated for 48 hrs by sulforhodamine B assay; details: M14, 48 h, read-out: GI
HOP-92 = test: Growth inhibition of human HOP92 cells at 10^-5 M incubated for 48 hrs by sulforhodamine B assay; details: HOP-92, 48 h, read-out: GI
DU-145 = test: Growth inhibition of human DU145 cells at 10^-5 M incubated for 48 hrs by sulforhodamine B assay; details: DU-145, 48 h, read-out: GI
K562 = test: Growth inhibition of human K562 cells at 10^-5 M incubated for 48 hrs by sulforhodamine B assay; details: K562, 48 h, read-out: GI
EKVX = test: Growth inhibition of human EKVX cells at 10^-5 M incubated for 48 hrs by sulforhodamine B assay; details: read-out: GI
NCI/ADR-RES = test: Growth inhibition of human NCI/ADR-RES cells at 10^-5 M incubated for 48 hrs by sulforhodamine B assay; details: read-out: GI
MDA-MB-468 = test: Growth inhibition of human MDA-MB-468 cells at 10^-5 M incubated for 48 hrs by sulforhodamine B assay; details: MDA-MB-468, 48 h, read-out: GI
SK-MEL-5 = test: Growth inhibition of human SK-MEL-5 cells at 10^-5 M incubated for 48 hrs by sulforhodamine B assay; details: SK-MEL-5, 48 h, read-out: GI
Malme-3M = test: Growth inhibition of human MALME-3M cells at 10^-5 M incubated for 48 hrs by sulforhodamine B assay; details: read-out: GI
IGROV-1 = test: Growth inhibition of human IGROV1 cells at 10^-5 M incubated for 48 hrs by sulforhodamine B assay; details: IGROV-1, 48 h, read-out: GI
CAKI-1 = test: Growth inhibition of human Caki1 cells at 10^-5 M incubated for 48 hrs by sulforhodamine B assay; details: CAKI-1, 48 h, read-out: GI
OVCAR-8 = test: Growth inhibition of human OVCAR8 cells at 10^-5 M incubated for 48 hrs by sulforhodamine B assay; details: OVCAR-8, 48 h, read-out: GI
PC-3 = test: Growth inhibition of human PC3 cells at 10^-5 M incubated for 48 hrs by sulforhodamine B assay; details: PC-3, 48 h, read-out: GI
SNB-75 = test: Growth inhibition of human SNB75 cells at 10^-5 M incubated for 48 hrs by sulforhodamine B assay; details: SNB-75, 48 h, read-out: GI
SK-OV-3 = test: Growth inhibition of human SKOV3 cells at 10^-5 M incubated for 48 hrs by sulforhodamine B assay; details: SK-OV-3, 48 h, read-out: GI
SR = test: Growth inhibition of human SR cells at 10^-5 M incubated for 48 hrs by sulforhodamine B assay; details: read-out: GI
COLO 205 = test: Growth inhibition of human COLO205 cells at 10^-5 M incubated for 48 hrs by sulforhodamine B assay; details: COLO 205, 48 h, read-out: GI
SN12C = test: Growth inhibition of human SN12C cells at 10^-5 M incubated for 48 hrs by sulforhodamine B assay; details: read-out: GI
U-251 = test: Growth inhibition of human U251 cells at 10^-5 M incubated for 48 hrs by sulforhodamine B assay; details: U-251, 48 h, read-out: GI
ACHN = test: Growth inhibition of human ACHN cells at 10^-5 M incubated for 48 hrs by sulforhodamine B assay; details: read-out: GI
MDA-MB-231 = test: Growth inhibition of human MDA-MB-231 cells at 10^-5 M incubated for 48 hrs by sulforhodamine B assay; details: MDA-MB-231, 48 h, read-out: GI
A549 = test: Growth inhibition of human A549/ATCC cells at 10^-5 M incubated for 48 hrs by sulforhodamine B assay; details: A549, 48 h, read-out: GI
UACC-257 = test: Growth inhibition of human UACC257 cells at 10^-5 M incubated for 48 hrs by sulforhodamine B assay; details: UACC-257, 48 h, read-out: GI
TK-10 = test: Growth inhibition of human TK10 cells at 10^-5 M incubated for 48 hrs by sulforhodamine B assay; details: TK-10, 48 h, read-out: GI
OVCAR-3 = test: Growth inhibition of human OVCAR3 cells at 10^-5 M incubated for 48 hrs by sulforhodamine B assay; details: OVCAR-3, 48 h, read-out: GI
HT-29 = test: Growth inhibition of human HT-29 cells at 10^-5 M incubated for 48 hrs by sulforhodamine B assay; details: HT-29, 48 h, read-out: GI
NCI-H226 = test: Growth inhibition of human NCI-H226 cells at 10^-5 M incubated for 48 hrs by sulforhodamine B assay; details: NCI-H226, 48 h, read-out: GI
A498 = test: Growth inhibition of human A498 cells at 10^-5 M incubated for 48 hrs by sulforhodamine B assay; details: A498, 48 h, read-out: GI
UACC-62 = test: Growth inhibition of human UACC62 cells at 10^-5 M incubated for 48 hrs by sulforhodamine B assay; details: UACC-62, 48 h, read-out: GI
BT-549 = test: Growth inhibition of human BT549 cells at 10^-5 M incubated for 48 hrs by sulforhodamine B assay; details: BT-549, 48 h, read-out: GI
NCI-H23 = test: Growth inhibition of human NCI-H23 cells at 10^-5 M incubated for 48 hrs by sulforhodamine B assay; details: NCI-H23, 48 h, read-out: GI
NCI-H322M = test: Growth inhibition of human NCI-H322M cells at 10^-5 M incubated for 48 hrs by sulforhodamine B assay; details: read-out: GI
SF-268 = test: Growth inhibition of human SF268 cells at 10^-5 M incubated for 48 hrs by sulforhodamine B assay; details: SF-268, 48 h, read-out: GI
Hs-578T = test: Growth inhibition of human Hs 578T cells at 10^-5 M incubated for 48 hrs by sulforhodamine B assay; details: read-out: GI

Row | SMILES | inhibition of growth at 10 µM (HCC 2998) | inhibition of growth at 10 µM (RXF 393) | inhibition of growth at 10 µM (MCF7) | inhibition of growth at 10 µM (SW-620) | inhibition of growth at 10 µM (OVCAR-5) | inhibition of growth at 10 µM (M14) | inhibition of growth at 10 µM (HOP-92) | inhibition of growth at 10 µM (DU-145) | inhibition of growth at 10 µM (K562) | inhibition of growth at 10 µM (EKVX) | inhibition of growth at 10 µM (NCI/ADR-RES) | inhibition of growth at 10 µM (MDA-MB-468) | inhibition of growth at 10 µM (SK-MEL-5) | inhibition of growth at 10 µM (Malme-3M) | inhibition of growth at 10 µM (IGROV-1) | inhibition of growth at 10 µM (CAKI-1) | inhibition of growth at 10 µM (OVCAR-8) | inhibition of growth at 10 µM (PC-3) | inhibition of growth at 10 µM (SNB-75) | inhibition of growth at 10 µM (SK-OV-3) | other results
1 | O=C1CC(=O)N(C2=Nc3c(sc4ccc(Cl)cc34)C(c3cccc([N+](=O)[O-])c3)N2)N1 (configuration not stated) | -8.39% | 10.9% | 21.7% | -6.45% | -2.6% | -11.3% | -17.6% | -15.1% | 0.75% | 21.9% | -2.89% | -2.44% | 5.38% | -4.33% | 20.8% | 10.9% | -4.71% | 2.78% | 8.27% | 1.27% | inhibition of growth at 10 µM (SR): -3.11%; inhibition of growth at 10 µM (COLO 205): -8.39%; inhibition of growth at 10 µM (SN12C): 18.3%; inhibition of growth at 10 µM (U-251): -10.9%; inhibition of growth at 10 µM (ACHN): -11.9%; inhibition of growth at 10 µM (MDA-MB-231): 11.8%; inhibition of growth at 10 µM (A549): -4.87%; inhibition of growth at 10 µM (UACC-257): -8.39%; inhibition of growth at 10 µM (TK-10): -11.9%; inhibition of growth at 10 µM (OVCAR-3): -6.5%; inhibition of growth at 10 µM (HT-29): -6.83%; inhibition of growth at 10 µM (NCI-H226): 19.4%; inhibition of growth at 10 µM (A498): 6.96%; inhibition of growth at 10 µM (UACC-62): 8.04%; inhibition of growth at 10 µM (BT-549): -19.4%; inhibition of growth at 10 µM (NCI-H23): 14.7%; inhibition of growth at 10 µM (NCI-H322M): 2.7%; inhibition of growth at 10 µM (SF-268): -5.71%; inhibition of growth at 10 µM (Hs-578T): 5.51%
2 | O=C1/C(=C\c2ccc3ccccc3c2)Sc2ccc(Cl)cc21 | -27.2% | -2.24% | -10.2% | 3.24% | -2.92% | 3.18% | 27.3% | -10.2% | 2.65% | 12.7% | 2.51% | -6.42% | 5.71% | 8.78% | 15.7% | 27.9% | -4.13% | 11.6% | -0.33% | -3.03% | inhibition of growth at 10 µM (SR): 18.6%; inhibition of growth at 10 µM (COLO 205): -10.7%; inhibition of growth at 10 µM (SN12C): 6.38%; inhibition of growth at 10 µM (U-251): -1.36%; inhibition of growth at 10 µM (ACHN): 8.79%; inhibition of growth at 10 µM (MDA-MB-231): 12.4%; inhibition of growth at 10 µM (A549): -7.74%; inhibition of growth at 10 µM (UACC-257): -3.36%; inhibition of growth at 10 µM (TK-10): -5.61%; inhibition of growth at 10 µM (OVCAR-3): -1.8%; inhibition of growth at 10 µM (HT-29): -1.78%; inhibition of growth at 10 µM (NCI-H226): 17.9%; inhibition of growth at 10 µM (A498): 0.99%; inhibition of growth at 10 µM (UACC-62): 21.7%; inhibition of growth at 10 µM (BT-549): -9.47%; inhibition of growth at 10 µM (NCI-H23): 10.4%; inhibition of growth at 10 µM (NCI-H322M): 10.3%; inhibition of growth at 10 µM (SF-268): 3.36%; inhibition of growth at 10 µM (Hs-578T): -2.83%
3 | O=[N+]([O-])c1cccc(C2c3sc4ccc(Cl)cc4c3N=C3NN=CN32)c1 (configuration not stated) | -6.88% | 1.71% | 16.9% | 5.16% | -1.09% | -2.02% | -7.25% | 28.2% | -4.99% | 15% | 6.44% | -15.5% | 5.85% | -2.71% | -11.9% | -3.12% | 1.42% | -9.08% | -4.8% | -4.54% | inhibition of growth at 10 µM (SR): 4.93%; inhibition of growth at 10 µM (COLO 205): -6.88%; inhibition of growth at 10 µM (SN12C): -37.5%; inhibition of growth at 10 µM (U-251): -0.13%; inhibition of growth at 10 µM (ACHN): 22%; inhibition of growth at 10 µM (MDA-MB-231): 5.59%; inhibition of growth at 10 µM (A549): -0.61%; inhibition of growth at 10 µM (UACC-257): -3.45%; inhibition of growth at 10 µM (TK-10): 39%; inhibition of growth at 10 µM (OVCAR-3): -0.5%; inhibition of growth at 10 µM (HT-29): -15.1%; inhibition of growth at 10 µM (NCI-H226): 21.7%; inhibition of growth at 10 µM (A498): 22.4%; inhibition of growth at 10 µM (UACC-62): 3.57%; inhibition of growth at 10 µM (BT-549): 16.9%; inhibition of growth at 10 µM (NCI-H23): 17.7%; inhibition of growth at 10 µM (NCI-H322M): 5.8%; inhibition of growth at 10 µM (SF-268): 4.21%; inhibition of growth at 10 µM (Hs-578T): -18.1%
